Test system: Streptococcus pyogenes (ATCC# 97-03 14289)
Assay: Anti-microbial screen (growth inhibition, OD 570 nm)
Assay type: cell-based
Conditions: growth in Todd Hewitt Broth, plates read at 570 nm at 0 time and 4 hours, color corrected
Procedure: Streptococcus pyogenes (ATCC# 97-03 14289) was grown in Todd Hewitt Broth (THB) (Difco Laboratories #0492-17-6) overnight until reaching an optical density of (OD=0.636 @ 570 nm) by reading 0.1 ml in a 96 well microtiter plate in a Molecular Devices Thermomax. This preparation was kept frozen as stocks in 30% v/v glycerol in 1.5 ml aliquots at −70^mC. until use. Prior to experiments, […] aliquots were thawed and diluted into 50 ml 2×THB. 60 ul of this dilution was added to 92 wells of microtiter plate. To three wells THB (200 ul) was added to serve as a blank and a sterility control. Test compounds in DMSO and appropriate concentrations of DMSO were added to Growth/Solvent Controls at 0 time. Plates were read at 0 time at 570 nm in the Molecular Devices plate reader to obtain compounds correction factors for insoluble or colored compounds. Plates were read again at 4 hours.
Percent inhibition is calculated with the following formulae: [drawing 4]
Color correct=O.D. 0 hr−Blank 0 hr)−(Solvent Control 0 hr−Blank 0 hr)
% Inhibition=100−O.D. test compound 4 hr−Blank 4 hr−color correct O.D. growth/solvent control 4 hr−Blank 4 hr

| SMILES | % Inhibition [%] |
| --- | --- |
| CCCc1ccc(C(=O)Nc2sc3c(c2C(=O)O)CCN(C(=O)c2ccc(F)cc2F)C3)cc1 | 88.03 |
| CCC(C(=O)Nc1sc2c(c1C(=O)O)CCN(C(=O)/C=C/c1ccc(Cl)cc1)C2)c1ccccc1 (centres unmarked) | 82.18 |
| Cc1c(F)cccc1C(=O)N1CCc2c(sc(NC(=O)c3ccc4ccccc4c3)c2C(=O)O)C1 | 73.27 |
| CC(C)(C)c1ccc(C(=O)Nc2sc3c(c2C(=O)O)CCN(C(=O)CCc2ccc(F)c(F)c2)C3)cc1 | 69.4 |
| CC(C)(C)c1ccc(C(=O)Nc2sc3c(c2C(=O)O)CCN(C(=O)c2ccc(F)c(F)c2)C3)cc1 | 75.95 |
| CCCc1ccc(C(=O)Nc2sc3c(c2C(=O)O)CCN(C(=O)c2cccnc2SC)C3)cc1 | 86.05 |
| Cc1ccc(C(=O)N2CCc3c(sc(NC(=O)c4ccc(C(C)(C)C)cc4)c3C(=O)O)C2)c(C)c1 | 82.83 |
| Cc1ccccc1C(=O)N1CCc2c(sc(NC(=O)c3ccccc3)c2C(=O)O)C1 | 80.08 |
| CSc1ccccc1C(=O)N1CCc2c(sc(NC(=O)c3ccc(C(C)(C)C)cc3)c2C(=O)O)C1 | 64.48 |
| CCc1ccc(C(=O)Nc2sc3c(c2C(=O)O)CCN(C(=O)C2CCCCC2)C3)cc1 | 63.5 |
| O=C(Nc1sc2c(c1C(=O)O)CCN(C(=O)c1cccc3ccccc13)C2)c1ccccc1 | 83.81 |
| O=C(Nc1sc2c(c1C(=O)O)CCN(C(=O)c1ccc(Cl)cc1)C2)c1ccc2ccccc2c1 | 76.7 |
| CCc1ccc(C(=O)Nc2sc3c(c2C(=O)O)CCN(C(=O)c2cccc4ccccc24)C3)cc1 | 67.43 |
| CCC(C(=O)Nc1sc2c(c1C(=O)O)CCN(C(=O)c1ccc(Cl)cc1)C2)c1ccccc1 (centres unmarked) | 72.87 |
| COc1ccc(OC)c(C(=O)N2CCc3c(sc(NC(=O)CCC4CCCC4)c3C(=O)O)C2)c1 | 86.05 |
| CCC(=O)N1CCc2c(sc(NC(=O)c3ccc4ccccc4c3)c2C(=O)O)C1 | 62.98 |
| CCc1ccc(C(=O)Nc2sc3c(c2C(=O)O)CCN(C(=O)c2sccc2C)C3)cc1 | 60.88 |
| CCC(C(=O)Nc1sc2c(c1C(=O)O)CCN(C(=O)c1cc3ccccc3s1)C2)c1ccccc1 (centres unmarked) | 66.79 |
| O=C(Nc1sc2c(c1C(=O)O)CCN(C(=O)c1ccc(F)c(F)c1)C2)c1ccccc1Cl | 61.26 |
| CCCSc1ncccc1C(=O)N1CCc2c(sc(NC(=O)c3cccc(OC)c3)c2C(=O)O)C1 | 88.5 |
| Cc1ccc(C)c(CC(=O)N2CCc3c(sc(NC(=O)c4ccccc4)c3C(=O)O)C2)c1 | 86.14 |
| COc1cccc(C(=O)Nc2sc3c(c2C(=O)O)CCN(C(=O)c2cccc(F)c2C)C3)c1 | 73.59 |
| Cc1c(F)cccc1C(=O)N1CCc2c(sc(NC(=O)CC(C)CC(C)(C)C)c2C(=O)O)C1 (centres unmarked) | 77.56 |
| CCc1ccc(C(=O)Nc2sc3c(c2C(=O)O)CCN(C(=O)c2ccccc2SC)C3)cc1 | 86.44 |
| CCc1ccc(C(=O)Nc2sc3c(c2C(=O)O)CCN(C(=O)C2CCC2)C3)cc1 | 65.14 |
| COc1cccc(C(=O)Nc2sc3c(c2C(=O)O)CCN(C(=O)c2ccccc2C(F)(F)F)C3)c1 | 73.59 |

| SMILES | % Inhibition [%] |
| --- | --- |
| COc1ccc(OC)c(C(=O)N2CCc3c(sc(NC(=O)c4ccccc4)c3C(=O)O)C2)c1 | 73.56 |
| CCCc1ccc(C(=O)Nc2sc3c(c2C(=O)O)CCN(C(=O)c2ccc(F)c(F)c2)C3)cc1 | 86.71 |
| Cc1ccsc1C(=O)N1CCc2c(sc(NC(=O)c3ccccc3)c2C(=O)O)C1 | 93.13 |
| CCCSc1ncccc1C(=O)N1CCc2c(sc(NC(=O)c3ccccc3OC)c2C(=O)O)C1 | 61.59 |
| COc1cccc(C(=O)N2CCc3c(sc(NC(=O)[C@]45C[C@H]6C[C@@H](C[C@H](C6)C4)C5)c3C(=O)O)C2)c1OC | 68.91 |
| COc1cccc(C(=O)Nc2sc3c(c2C(=O)O)CCN(C(=O)c2ccc(F)c(F)c2)C3)c1 | 75.77 |
| CCCc1ccc(C(=O)Nc2sc3c(c2C(=O)O)CCN(C(=O)CC2CCCC2)C3)cc1 | 61.53 |
| O=C(Nc1sc2c(c1C(=O)O)CCN(C(=O)c1ccc(F)cc1F)C2)c1ccc2ccccc2c1 | 66.41 |
| O=C(Nc1sc2c(c1C(=O)O)CCN(C(=O)c1ccc(Cl)cc1)C2)c1ccccc1 | 87.07 |
| CCCc1ccc(C(=O)Nc2sc3c(c2C(=O)O)CCN(C(=O)c2cccc(F)c2C)C3)cc1 | 99.63 |
| CC(C)CC(=O)N1CCc2c(sc(NC(=O)c3ccc(C(C)(C)C)cc3)c2C(=O)O)C1 | 64.48 |
| CCCc1ccc(C(=O)Nc2sc3c(c2C(=O)O)CCN(C(=O)c2ccc(Cl)cc2OC)C3)cc1 | 67.49 |
| CCC(=O)N1CCc2c(sc(NC(=O)C(CC)c3ccccc3)c2C(=O)O)C1 (centres unmarked) | 60.7 |
| COc1cccc(C(=O)Nc2sc3c(c2C(=O)O)CCN(C(=O)c2ccc(Cl)cc2)C3)c1 | 90.32 |
| Cc1ccsc1C(=O)N1CCc2c(sc(NC(=O)c3ccc(C(C)(C)C)cc3)c2C(=O)O)C1 | 68.74 |
| CCCc1ccc(C(=O)Nc2sc3c(c2C(=O)O)CCN(C(=O)C(C)C)C3)cc1 | 74.78 |
| Cc1ccc(C)c(CC(=O)N2CCc3c(sc(NC(=O)c4ccc(C(C)(C)C)cc4)c3C(=O)O)C2)c1 | 92.67 |
| CCc1ccc(C(=O)Nc2sc3c(c2C(=O)O)CCN(C(=O)c2ccc(C)cc2C)C3)cc1 | 85.78 |
| O=C(Nc1sc2c(c1C(=O)O)CCN(C(=O)C1CCC1)C2)c1ccc(Cl)cc1 | 67.98 |
| CCOc1ncccc1C(=O)N1CCc2c(sc(NC(=O)c3ccccc3)c2C(=O)O)C1 | 95.92 |
| COc1cc(Cl)ccc1C(=O)N1CCc2c(sc(NC(=O)c3c(F)cccc3F)c2C(=O)O)C1 | 59.98 |
| COc1cccc(C(=O)Nc2sc3c(c2C(=O)O)CCN(C(=O)c2ccccc2C)C3)c1 | 74.32 |
| O=C(Nc1sc2c(c1C(=O)O)CCN(C(=O)c1ccsc1)C2)c1ccccc1Cl | 85.87 |
| CC(C)(C)c1ccc(C(=O)Nc2sc3c(c2C(=O)O)CCN(C(=O)c2ccoc2)C3)cc1 | 61.2 |
| O=C(O)c1c(NC(=O)C2CCCCC2)sc2c1CCN(C(=O)/C=C/c1ccc(Cl)cc1)C2 | 67.5 |
| CCCSc1ncccc1C(=O)N1CCc2c(sc(NC(=O)c3ccccc3)c2C(=O)O)C1 | 86.6 |

| SMILES | % Inhibition [%] |
| --- | --- |
| Cn1cc(C(=O)N2CCc3c(sc(NC(=O)CCC4CCCC4)c3C(=O)O)C2)c2ccccc21 | 65.02 |
| Cc1c(F)cccc1C(=O)N1CCc2c(sc(NC(=O)c3ccc(Cl)cc3)c2C(=O)O)C1 | 78.42 |
| CC(C)CC(=O)N1CCc2c(sc(NC(=O)c3ccccc3)c2C(=O)O)C1 | 98.72 |
| CSc1ncccc1C(=O)N1CCc2c(sc(NC(=O)c3ccco3)c2C(=O)O)C1 | 62.35 |
| CCOc1ncccc1C(=O)N1CCc2c(sc(NC(=O)c3ccc(CC)cc3)c2C(=O)O)C1 | 67.76 |
| Cc1ccsc1C(=O)N1CCc2c(sc(NC(=O)c3ccc(Cl)cc3)c2C(=O)O)C1 | 62.02 |
| COc1cccc(C(=O)Nc2sc3c(c2C(=O)O)CCN(C(=O)c2cc4ccccc4s2)C3)c1 | 63.77 |
| CC(C)(C)c1ccc(C(=O)Nc2sc3c(c2C(=O)O)CCN(C(=O)c2cccc4ccccc24)C3)cc1 | 73 |
| CCCSc1ncccc1C(=O)N1CCc2c(sc(NC(=O)c3ccccc3Cl)c2C(=O)O)C1 | 94.82 |
| CCCc1ccc(C(=O)Nc2sc3c(c2C(=O)O)CCN(C(=O)c2ccc(C)cc2C)C3)cc1 | 61.2 |
| O=C(CCC1CCCC1)Nc1sc2c(c1C(=O)O)CCN(C(=O)/C=C/c1ccc(Cl)cc1)C2 | 67.51 |
| CCc1ccc(C(=O)Nc2sc3c(c2C(=O)O)CCN(C(=O)c2cn(C)c4ccccc24)C3)cc1 | 62.19 |
| COc1cccc(C(=O)N2CCc3c(sc(NC(=O)c4ccccc4Cl)c3C(=O)O)C2)c1OC | 60.53 |
| CC(C)(C)c1ccc(C(=O)Nc2sc3c(c2C(=O)O)CCN(C(=O)c2ccccc2C(F)(F)F)C3)cc1 | 80.87 |
| CC(=O)Nc1ccc(C(=O)N2CCc3c(sc(NC(=O)c4ccc(C(C)(C)C)cc4)c3C(=O)O)C2)cc1 | 71.69 |
| CC(C)(C)c1ccc(C(=O)Nc2sc3c(c2C(=O)O)CCN(C(=O)c2ccc(F)cc2F)C3)cc1 | 86.77 |
| CCCCOc1ccc(C(=O)Nc2sc3c(c2C(=O)O)CCN(C(=O)CC)C3)cc1 | 65.64 |
| O=C(Nc1sc2c(c1C(=O)O)CCN(C(=O)CCc1ccc(F)c(F)c1)C2)c1ccc(Cl)cc1 | 82.59 |
| Cc1ccccc1C(=O)N1CCc2c(sc(NC(=O)[C@]34C[C@H]5C[C@@H](C[C@H](C5)C3)C4)c2C(=O)O)C1 | 61.84 |
| COc1cccc(C(=O)N2CCc3c(sc(NC(=O)c4ccc(Cl)cc4)c3C(=O)O)C2)c1OC | 77.82 |
| CCCSc1ncccc1C(=O)N1CCc2c(sc(NC(=O)c3ccc(CCC)cc3)c2C(=O)O)C1 | 79.09 |
| CCCc1ccc(C(=O)Nc2sc3c(c2C(=O)O)CCN(C(=O)c2ccccc2C(F)(F)F)C3)cc1 | 64.51 |
| O=C(CCC1CCCC1)Nc1sc2c(c1C(=O)O)CCN(C(=O)c1ccc(F)c(F)c1)C2 | 61.45 |
| CCOc1ncccc1C(=O)N1CCc2c(sc(NC(=O)c3ccc(Cl)cc3)c2C(=O)O)C1 | 79.31 |
| CCCc1ccc(C(=O)Nc2sc3c(c2C(=O)O)CCN(C(=O)CC(C)C)C3)cc1 | 84.72 |
